“Also recorded” adds a separate entry of the source. No end group written: not given here.
How the values were obtained:
mice [1] = assay: Reciprocal social interaction (RSI) test, social activity; assay type: in vivo; details: for social activity of ABX adrenalectomized mice: under drug treatment, compared to ABX sham and vehicle sham mice
corticosterone = assay: Serum corticosterone measurement (Corticosterone EIA Kit); assay type: in vivo, mice; details: for serum corticosterone: CNO i.p.; for serum corticosterone levels: GF mice, 50 mg/kg i.p., vs CMC vehicle, 50 mg/kg
Experimental: Whole blood was collected either by cardiac puncture or retro-orbital bleeding, and placed into Micro tube Z gel (41.1378.005; Sarstedt). Serum was separated by centrifuge at 10,000×g for five minutes, and stored at −80° C. until use. Corticosterone levels were detected by the Corticosterone EIA Kit (K014-H5; Arbor Assays) using the manufacturer's protocol. Due to the nature of the circadian rhythm for the corticosterone, the blood sample was collected during 1:00-5:00 pm on each day of experiment.

c-Fos = c-Fos staining of brain sections after social interaction; assay type: in vivo; details: ABX hM4Di mice, CNO
Experimental: All brain samples for c-Fos expression were collected one hour after the reciprocal social interaction test. Mice were anesthetized by intraperitoneal injection with a mixture of 100 mg/kg ketamine and 10 mg/kg xylazine. The mice were then perfused via the cardiovascular system with PBS followed by 4% paraformaldehyde (Electron Microscopy Sciences). Brains were removed and post-fixed in 4% paraformaldehyde 3-5 days at 4° C. The brains were kept in PBS with 0.02% sodium azide at 4° C. until sectioning.
The brains were embedded in 4% UltraPure low melting point agarose (ThermoFisher) and were coronally sectioned by vibratome (VT1000S; Leica) at a thickness of 50 μm, with the exception of the brain sections for FIGS. 1D-1F that were sectioned at a thickness of 100 μm. Brain sections of 50 μm were collected and stained every 0.15 mm. Brain sections of 100 μm were collected sequentially and stained entirely. The brain sections were stored as free-floating in PBS with 0.02% sodium azide at 4° C. until staining. […] The next day, sections were incubated with fluorescence-conjugated secondary antibody for 1.5-2 hours at room temperature. […] The fluorescence-conjugated secondary antibodies were donkey anti-goat (1:1000), donkey anti-rabbit (1:1000), and donkey anti-mouse (1:1000) (ThermoFisher Scientific). […]

mice [2] = assay: Non-social activity (self-grooming, digging, rearing) in the RSI paradigm; assay type: in vivo
Text: Minimal aggressive behaviors were observed. Each novel mouse was used for testing up to two times per day. Subject mice undergoing repeated testing throughout the experiment were confronted with a novel mouse each time. The following social investigation behaviors constituted “social activity” and were scored as such: anogenital sniffing, nose-nose sniffing, active approach, and push under/crawl. The following solitary behaviors during social interaction constituted “non-social activity” and were scored as such: self-grooming, digging, and rearing. All behaviors were analyzed using of ETHOM software (Shih, 2000).
Novel cage behavior is a widely-used test for measuring the non-social activity in a novel environment. The subject mouse was placed in an unused, sterilized cage. Non-social activity was video recorded for 5 minutes. The following solitary behaviors during social interaction constituted “non-social activity” and were scored as such: self-grooming, digging, and rearing. All behaviors were analyzed using of ETHOM software (Shih, 2000).

For `C[N+]1([O-])CCN(C2=Nc3cc(Cl)ccc3Nc3ccccc32)CC1` [CNO, clozapine N-oxide], the social behavior (mice [1]; ABX Crh-ires-Cre mice with hM4Di in PVN, CNO i.p. 2-3 mg/kg) was “dramatically increased”, the social behavior (mice [1]; ABX mice receiving control virus (mCherry) in PVN, CNO i.p.) was “no change” and the social behavior (mice [1]; SPF hM3Dq mice (PVN), CNO i.p.) was “significantly decreased”. The serum corticosterone (corticosterone; ABX hM4Di mice (PVN), after social interaction) was “decreased; also recorded: reduction”, the serum corticosterone (corticosterone; SPF hM3Dq mice (PVN)) was “increased” and the “c-Fos expression in the BNST or DG” value (c-Fos) was “did not alter”. The “c-Fos staining in the PVN” value (c-Fos) was “decreased” and the non-social activity (mice [2]; SPF hM3Dq mice, chemogenetic activation of PVN CRH neurons) was “increased”.
In the case of `CC#C[C@]1(O)CC[C@H]2[C@@H]3CCC4=CC(=O)CCC4=C3[C@@H](c3ccc(N(C)C)cc3)C[C@@]21C` [RU-486, mifepristone], the social activity (mice [1]; ABX control mice vs ABX Nr3cl^ΔDG or Nr3cl^ΔBNST mice, 40 mg/kg i.p.) is reported as “enhanced social activity only in ABX control mice” and the “social activity of ABX adrenalectomized mice” value (mice [1]) is reported as “elevated”.
For `C[C@]12C[C@H](O)[C@H]3[C@@H](CCC4=CC(=O)CC[C@@]43C)[C@@H]1CC[C@@H]2C(=O)CO` [corticosterone], the social behavior (mice [1]; acute injection, 10 mg/kg i.p. on two consecutive days, all groups (vehicle sham, ABX sham, ABX ADX)) was “impaired” and the social activity (mice [1]; injection into the DG and BNST of SPF mice (corticosterone 65 μM, dexamethasone 20 mM)) was “decreased”.
`CC(C)(C(=O)c1cccnc1)c1cccnc1` [metyrapone] was tested, and the social activity (mice [1]; GF mice, 50 mg/kg i.p., 40 min before test, vs CMC vehicle) was “significantly increased”, the “social activity of ABX sham mice compared to vehicle sham mice” value (mice [1]; during drug treatment i.p. (RU-486 40 mg/kg, MET 50 mg/kg)) was “increased” and the “social activity of ABX adrenalectomized mice” value (mice [1]) was “elevated”. The serum corticosterone levels (corticosterone; after social interaction) was “effectively reduced” and the serum corticosterone levels (corticosterone; after social interaction, listed as MET) was “reduction”.
With “CRF: synthetic corticotropin-releasing factor (SEEPPISLDLTFHLLREVLEMARAEQLAQQAHSNRKLMEII; ends and bridges not checked; UniProt P06850 154-194, looked up)” the “social activity toward a novel mouse” value (mice [1]; injection into the PVN of SPF mice (210 μM or 42 μM, 450 nL per hemisphere)) was “dramatically reduced”, the non-social activity (mice [2]; high levels of CRF into PVN of SPF mice) was “reversed these changes” and the non-social activity (mice [2]; low levels of CRF into PVN of SPF mice) was “increased”.

Source: patent US20220273732A1, “PROBIOTIC THERAPIES FOR SOCIAL DEFICIT AND STRESS RESPONSE” (California Institute of Technology, priority 2021, published 2022)
